Assay results as given in patent US20070128217A1 (priority 2003, published 2007).

Tests used:
[1] = test system: control sera (pooled serum of ten healthy LUMC hospital workers; commercial negative donor pooled serum from the Dutch bloodbank); type: binding, human; set-up: Binding of Control serum LUMC to linear peptides / Binding of Control serum Blood-bank to linear peptides / Binding of Control serum LUMC to looped peptides / Binding of Control Serum Blood-Bank to Looped peptides / Binding of Control serum LUMC to linear peptides of the protein M of SARS-CoV Urbani / Binding of Control serum Blood-bank to linear peptides of the protein M of SARS-CoV Urbani / Binding of Control serum LUMC to looped peptides of the protein M of SARS-CoV Urbani / Binding of Control Serum Blood-Bank to Looped peptides of the protein M of SARS-CoV Urbani: unit not given here
[2] = test system: antibodies in sera from SARS patients (sera 1a, 1b, 2, 6, 37, 62, London, SARS-yellow, SARS-green); type: binding, human; set-up: Binding of serum 6 to linear peptides of protein X1 of SARS-CoV Urbani / Binding of serum 37 to linear peptides of protein X1 of SARS-CoV Urbani / Binding of serum 6 to looped/cyclic peptide (PEPSCAN-ELISA) / Binding of serum 37 to looped/cyclic peptide (PEPSCAN-ELISA) / Binding of serum 37 to looped/cyclic peptides of protein X1 of SARS-CoV Urbani / Binding of serum 6 to linear peptides of protein X2 / Binding of serum 37 to linear peptides of protein X2 / Binding of serum 37 to looped/cyclic peptides of protein X2 of SARS-CoV Urbani / Binding of serum 6 to linear peptides of protein M of SARS-CoV Urbani / Binding of serum 37 to linear peptides of protein M of SARS-CoV Urbani / Binding of serum 6 to looped/cyclic peptides of protein M of SARS-CoV Urbani / Binding of serum 37 to looped/cyclic peptides of protein M of SARS-CoV Urbani / Binding of serum 6 to linear peptides of protein X3 of SARS-CoV Urbani / Binding of serum 37 to linear peptides of protein X3 of SARS-CoV Urbani / Binding of serum 37 to looped/cyclic peptides of protein X3 of SARS-CoV Urbani / Binding of serum 6 to linear peptides of protein X4 of SARS-CoV Urbani / Binding of serum 37 to linear peptides of protein X4 of SARS-CoV Urbani / Binding of serum 37 to looped/cyclic peptides of protein X4 of SARS-CoV Urbani / Binding of serum 6 to linear peptides of protein X5 of SARS-CoV Urbani / Binding of serum 37 to linear peptides of protein X5 of SARS-CoV Urbani / Binding of serum 37 to looped/cyclic peptides of protein X5 of SARS-CoV Urbani / Binding of serum 6 to linear peptides of protein N of SARS-CoV Urbani / Binding of serum 37 to linear peptides of protein N of SARS-CoV Urbani / Binding of serum 6 to linear peptide (PEPSCAN-ELISA) / Binding of serum 1a to looped/cyclic peptides of protein N of SARS-CoV Urbani / Binding of serum 1b to looped/cyclic peptides of protein N of SARS-CoV Urbani / Binding of serum 2 to looped/cyclic peptides of protein N of SARS-CoV Urbani / Binding of serum 6 to looped/cyclic peptides of protein N of SARS-CoV Urbani / Binding of serum 37 to looped/cyclic peptides of protein N of SARS-CoV Urbani / Binding of serum 62 to looped/cyclic peptides of protein N of SARS-CoV Urbani / Binding of serum London to looped/cyclic peptides of protein N of SARS-CoV Urbani / Binding of serum SARS-green to looped/cyclic peptides of protein N of SARS-CoV Urbani: unit not given here
[3] = test system: rabbit serum obtained by immunizing a rabbit with the SARS-CoV strain Frankfurt 1; type: binding; set-up: Binding of a rabbit serum to linear peptides / Binding of a rabbit serum to looped peptides / Rabbit serum linear peptides / Rabbit serum looped peptides / Binding of a rabbit serum to linear peptides of protein N of SARS-CoV Urbani (Rabbit serum linear peptides) / Binding of a rabbit serum to looped/cyclic peptides of protein N of SARS-CoV Urbani (Rabbit serum looped peptides): unit not given here

SRTLSYYKLGASQRV
0.5: Binding of Control serum LUMC to linear peptides of the protein M of SARS-CoV Urbani [1] | Binding of serum 1b to linear peptides of protein M of SARS-CoV Urbani [2]
0.7: Binding of serum 2 to looped/cyclic peptides of protein M of SARS-CoV Urbani [2] | Binding of serum 62 to looped/cyclic peptides of protein M of SARS-CoV Urbani [2]
0.9: Binding of Control serum Blood-bank to linear peptides of the protein M of SARS-CoV Urbani [1] | Binding of serum 1a to looped/cyclic peptides of protein M of SARS-CoV Urbani [2] | Binding of serum 6 to looped/cyclic peptides of protein M of SARS-CoV Urbani [2]
0.4: Binding of serum 6 to linear peptides of protein M of SARS-CoV Urbani [2] | Binding of serum SARS-green to looped/cyclic peptides of protein M of SARS-CoV Urbani [2]
0.8: Binding of Control serum LUMC to looped peptides of the protein M of SARS-CoV Urbani [1] | Binding of serum 1a to linear peptides of protein M of SARS-CoV Urbani [2] | Binding of serum 2 to linear peptides of protein M of SARS-CoV Urbani [2] | Binding of serum 37 to linear peptides of protein M of SARS-CoV Urbani [2] | Binding of serum 37 to looped/cyclic peptides of protein M of SARS-CoV Urbani [2] | Binding of serum 62 to linear peptides of protein M of SARS-CoV Urbani [2] | Binding of serum SARS-yellow to looped/cyclic peptides of protein M of SARS-CoV Urbani [2]
0.1: Binding of serum SARS-yellow to linear peptides of protein M of SARS-CoV Urbani [2]
0.3: Binding of serum 1b to looped/cyclic peptides of protein M of SARS-CoV Urbani [2] | Binding of serum London to linear peptides of protein M of SARS-CoV Urbani [2] | Binding of serum London to looped/cyclic peptides of protein M of SARS-CoV Urbani [2]
0.2: Binding of serum SARS-green to linear peptides of protein M of SARS-CoV Urbani [2]
0.6: Binding of Control Serum Blood-Bank to Looped peptides of the protein M of SARS-CoV Urbani [1] | Rabbit serum linear peptides [3] | Rabbit serum looped peptides [3]

VTIAEILIIIMRTFR
0.6: Binding of Control serum LUMC to linear peptides of the protein X3 of SARS-CoV Urbani [1] | Binding of serum 37 to looped/cyclic peptides of protein X3 of SARS-CoV Urbani [2] | Binding of serum 62 to linear peptides of protein X3 of SARS-CoV Urbani [2] | Binding of serum London to linear peptides of protein X3 of SARS-CoV Urbani [2] | Binding of serum SARS-yellow to looped/cyclic peptides of protein X3 of SARS-CoV Urbani [2]
0.4: Binding of serum 1b to looped/cyclic peptides of protein X3 of SARS-CoV Urbani [2] | Binding of serum 37 to linear peptides of protein X3 of SARS-CoV Urbani [2] | Rabbit serum looped peptides [3]
0.7: Binding of serum 1a to linear peptides of protein X3 of SARS-CoV Urbani [2] | Binding of serum 1a to looped/cyclic peptides of protein X3 of SARS-CoV Urbani [2] | Binding of serum 2 to linear peptides of protein X3 of SARS-CoV Urbani [2] | Binding of serum 2 to looped/cyclic peptides of protein X3 of SARS-CoV Urbani [2] | Binding of serum 6 to linear peptides of protein X3 of SARS-CoV Urbani [2] | Binding of serum 6 to looped/cyclic peptides of protein X3 of SARS-CoV Urbani [2]
0.2: Binding of serum SARS-green to looped/cyclic peptides of protein X3 of SARS-CoV Urbani [2] | Rabbit serum linear peptides [3]
0.5: Binding of serum 62 to looped/cyclic peptides of protein X3 of SARS-CoV Urbani [2] | Binding of serum SARS-green to linear peptides of protein X3 of SARS-CoV Urbani [2]
0.8: Binding of Control Serum Blood-Bank to Looped peptides of the protein X3 of SARS-CoV Urbani [1] | Binding of Control serum Blood-bank to linear peptides of the protein X3 of SARS-CoV Urbani [1] | Binding of Control serum LUMC to looped peptides of the protein X3 of SARS-CoV Urbani [1]
0.3: Binding of serum 1b to linear peptides of protein X3 of SARS-CoV Urbani [2] | Binding of serum London to looped/cyclic peptides of protein X3 of SARS-CoV Urbani [2] | Binding of serum SARS-yellow to linear peptides of protein X3 of SARS-CoV Urbani [2]
